Assay results from PubChem BioAssay AID2060604 (Molecular Pharmacology Branch, DTP, NCI, 2025).

Test system: 379773-124-R-J2-PDC complex spheroids, viability % test/control
Experiment: Anticancer human tumor 379773-124-R-J2-PDC patient-derived endometrial carcinoma cell line growth inhibition [CLK]
Conditions: for IC50: curve of first compound; for viability, T/C: stronger effect = lower value
Summary of the method: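 Patient-derived tumor cells grown as complex spheroids with HUVEC endothelial cells and mesenchymal stem cells, treated with drug combinations. Concentrations descend in half-log steps from near clinical Cmax, or from 10 microM if Cmax unknown.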

[1] = second compound 0.0316 µM, first compound 0.0316 µM
[2] = second compound 0.0316 µM, first compound 0.1 µM
[3] = second compound 0.0316 µM, first compound 0.316 µM
[4] = second compound 0.0316 µM, first compound 1 µM
[5] = second compound 0.0316 µM, first compound 3.16 µM
[6] = second compound 0.0316 µM, first compound 10 µM
[7] = second compound 0.1 µM, first compound 0.0316 µM
[8] = second compound 0.1 µM, first compound 0.1 µM
[9] = second compound 0.1 µM, first compound 0.316 µM
[10] = second compound 0.1 µM, first compound 1 µM
[11] = second compound 0.1 µM, first compound 3.16 µM
[12] = second compound 0.1 µM, first compound 10 µM
[13] = second compound 0.316 µM, first compound 0.0316 µM
[14] = second compound 0.316 µM, first compound 0.1 µM
[15] = second compound 0.316 µM, first compound 0.316 µM
[16] = second compound 0.316 µM, first compound 1 µM
[17] = second compound 0.316 µM, first compound 3.16 µM
[18] = second compound 0.316 µM, first compound 10 µM
[19] = second compound 1 µM, first compound 0.0316 µM
[20] = second compound 1 µM, first compound 0.1 µM
[21] = second compound 1 µM, first compound 0.316 µM
[22] = second compound 1 µM, first compound 1 µM
[23] = second compound 1 µM, first compound 3.16 µM
[24] = second compound 1 µM, first compound 10 µM
[25] = second compound 3.16 µM, first compound 0.0316 µM
[26] = second compound 3.16 µM, first compound 0.1 µM
[27] = second compound 3.16 µM, first compound 0.316 µM
[28] = second compound 3.16 µM, first compound 1 µM
[29] = second compound 3.16 µM, first compound 3.16 µM
[30] = second compound 3.16 µM, first compound 10 µM
[31] = second compound 10 µM, first compound 0.0316 µM
[32] = second compound 10 µM, first compound 0.1 µM
[33] = second compound 10 µM, first compound 0.316 µM
[34] = second compound 10 µM, first compound 1 µM
[35] = second compound 10 µM, first compound 3.16 µM
[36] = second compound 10 µM, first compound 10 µM
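Further: compound exposure lasted seven days before the viability readout.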
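Wherever viability, T/C is given: 100% = DMSO vehicle control wells.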

For `C=CC(=O)N1CCN(c2nc(=O)n(-c3c(C)ccnc3C(C)C)c3nc(-c4c(O)cccc4F)c(F)cc23)C(C)C1` (centres undefined) + CNC(=O)c1ccc(Nc2nc(OC3CCCC3)c3c(-c4ccc5nc(C)oc5c4)c[nH]c3n2)c(OC)c1, the IC50 (second compound 0.0316 µM) was over 10000 nM, the IC50 (second compound 0.1 µM) was under 31.6 nM and the IC50 (second compound 0.316 µM) was under 31.6 nM. The IC50 (second compound 1 µM) was under 31.6 nM, the IC50 (second compound 3.16 µM) was under 31.6 nM and the IC50 (second compound 10 µM) was under 31.6 nM. For the same compound, the viability, T/C [1] was 74.3%, the viability, T/C [2] was 80% and the viability, T/C [3] was 76.1%. It also gave a viability, T/C [4] of 76.5%, a viability, T/C [5] of 76.5% and a viability, T/C [6] of 71.3%. For the same compound, the viability, T/C [7] was 34.9%, the viability, T/C [8] was 46.9% and the viability, T/C [9] was 42.7%. The viability, T/C [10] was 39.2%, the viability, T/C [11] was 36.6% and the viability, T/C [12] was 38.3%. For the same compound, the viability, T/C [13] was 43.6%, the viability, T/C [14] was 33% and the viability, T/C [15] was 41.9%. The viability, T/C [16] was 41.6%, the viability, T/C [17] was 37% and the viability, T/C [18] was 38.5%. The viability, T/C [19] was 34.6%, the viability, T/C [20] was 33.1% and the viability, T/C [21] was 45%. For the same compound, the viability, T/C [22] was 34.5%, the viability, T/C [23] was 32.6% and the viability, T/C [24] was 28.4%. For the same compound, the viability, T/C [25] was 31.1%, the viability, T/C [26] was 34.5% and the viability, T/C [27] was 34.9%. The viability, T/C [28] was 28.1%, the viability, T/C [29] was 29% and the viability, T/C [30] was 27.7%. For the same compound, the viability, T/C [31] was 27.8%, the viability, T/C [32] was 33.1% and the viability, T/C [33] was 29.2%. For the same compound, the viability, T/C [34] was 28.2%, the viability, T/C [35] was 40% and the viability, T/C [36] was 18.4%.

In the case of `CC(CO)NC(=O)c1cc(-c2ccc(Cl)cc2)nn(-c2cnn(C)c2)c1=O` (centres undefined) + CNC(=O)c1ccc(Nc2nc(OC3CCCC3)c3c(-c4ccc5nc(C)oc5c4)c[nH]c3n2)c(OC)c1, the IC50 (second compound 0.0316 µM) is reported as over 10000 nM, the IC50 (second compound 0.1 µM) is reported as under 31.6 nM and the IC50 (second compound 0.316 µM) is reported as under 31.6 nM. The IC50 (second compound 1 µM) was under 31.6 nM, the IC50 (second compound 3.16 µM) was under 31.6 nM and the IC50 (second compound 10 µM) was under 31.6 nM. For the same compound, the viability, T/C [1] was 72%, the viability, T/C [2] was 80.9% and the viability, T/C [3] was 70.2%. The viability, T/C [4] was 74.2%, the viability, T/C [5] was 72.4% and the viability, T/C [6] was 52.2%. It also gave a viability, T/C [7] of 48.2%, a viability, T/C [8] of 48.5% and a viability, T/C [9] of 44.4%. The viability, T/C [10] was 38.9%, the viability, T/C [11] was 36.8% and the viability, T/C [12] was 33.3%. The viability, T/C [13] was 42.1%, the viability, T/C [14] was 42.2% and the viability, T/C [15] was 37.7%. It also gave a viability, T/C [16] of 35.4%, a viability, T/C [17] of 43.8% and a viability, T/C [18] of 29.9%. For the same compound, the viability, T/C [19] was 32.2%, the viability, T/C [20] was 37.4% and the viability, T/C [21] was 34.8%. For the same compound, the viability, T/C [22] was 34.6%, the viability, T/C [23] was 35.6% and the viability, T/C [24] was 25.2%. For the same compound, the viability, T/C [25] was 32.6%, the viability, T/C [26] was 30% and the viability, T/C [27] was 32.5%. The viability, T/C [28] was 30.9%, the viability, T/C [29] was 34.5% and the viability, T/C [30] was 24.4%. It also gave a viability, T/C [31] of 32%, a viability, T/C [32] of 30.5% and a viability, T/C [33] of 28.5%. For the same compound, the viability, T/C [34] was 35.8%, the viability, T/C [35] was 32.4% and the viability, T/C [36] was 22.7%.
